Data as given in ChEMBL document CHEMBL5303304, “EUbOPEN Chemogenomics Library - IncuCyte” (2023).

Columns and labels:
Format in all cases: toxicity, cell-based
HEK-293T = test: Incucyte cell viability with HEK293T; conditions: human, 10 µM, compound concentration 10 uM
Fibroblast = test: Incucyte cell viability with human fibroblast; conditions: 10 µM, compound concentration 10 uM
U2OS = test: Incucyte cell viability with U2OS; conditions: human, 10 µM, compound concentration 10 uM
Further: unitless GR value; below 1 slowed growth and below 0 cell loss.

SMILES	Growth Rate (HEK-293T; 0 h, replicate number 1)	Growth Rate (HEK-293T; 24 h, replicate number 2)	Growth Rate (Fibroblast; 6 h, replicate number 2)	Growth Rate (Fibroblast; 12 h, replicate number 1)	Growth Rate (Fibroblast; 12 h, replicate number 2)	Growth Rate (Fibroblast; 18 h, replicate number 1)	Growth Rate (Fibroblast; 18 h, replicate number 2)	Growth Rate (Fibroblast; 24 h, replicate number 2)	Growth Rate (U2OS; 0 h, replicate number 1)	Growth Rate (U2OS; 0 h, replicate number 2)	Growth Rate (U2OS; 6 h, replicate number 1)	Growth Rate (U2OS; 12 h, replicate number 1)	Growth Rate (U2OS; 18 h, replicate number 1)	Growth Rate (U2OS; 24 h, replicate number 1)	Growth Rate (HEK-293T; 6 h, replicate number 2)	Growth Rate (HEK-293T; 12 h, replicate number 2)	Growth Rate (HEK-293T; 18 h, replicate number 2)	Growth Rate (Fibroblast; 0 h, replicate number 2)	Growth Rate (Fibroblast; 6 h, replicate number 1)	Growth Rate (Fibroblast; 24 h, replicate number 1)	also measured
O=C(O)c1cc(-c2ccccc2)ccc1O	-0.37	0.94	-0.01	0.95	0.44	0.96	0.67	0.79	-0.47	-0.88	0.63	0.69	0.88	0.87							
CC(C=CC1=C(C)CCCC1(C)C)=CC=CC(C)=CC(=O)O	0.11	0.58	0.99		0.99				0.58	0.8	0.77	0.3	0.67	0.87	0.82	0.99	0.73	0.82			Growth Rate (HEK-293T; 0 h, replicate number 2): -0.77; Growth Rate (HEK-293T; 18 h, replicate number 1): 0.94; Growth Rate (HEK-293T; 24 h, replicate number 1): 0.95; Growth Rate (U2OS; 6 h, replicate number 2): 0.93; Growth Rate (U2OS; 24 h, replicate number 2): 0.99
CCOC(=O)Nc1ccc2c(c1)N(C(=O)CN(CC)CC)c1ccccc1CC2	0.65	0.92	0.43	0.64	0.75	0.61	0.53	0.69	0.1		0.94	0.75		0.89	0.81	0.9	0.97	0.9	0.29	0.76	
C[C@H](CCC(=O)[O-])[C@H]1CC[C@H]2[C@@H]3[C@@H](O)C[C@@H]4C[C@H](O)CC[C@]4(C)[C@H]3CC[C@]12C.[Na+]	0.59	1	0.93		0.91	0.83	0.77	0.88	-0.51	0.8	0.4	0.47	0.72					0.84	0.88		Growth Rate (U2OS; 12 h, replicate number 2): 1
COc1cc(O)c(C(CC(=O)N2C[C@H](C)C[C@H](C)C2)c2ccc3c(c2)OCO3)c(OC)c1 (stereo partly specified)	0.81		1	0.5		0.1	0.88		0.96	0.9								0.14	-0.32	0.74	Growth Rate (HEK-293T; 0 h, replicate number 2): -0.14
CC(=O)Nc1nc(C)c(S(=O)(=O)Nc2ccc(C(O)(C(F)(F)F)C(F)(F)F)cc2)s1	0.65	0.78	0.51	0.45	0.84	1	0.9		-0.47		0.76	0.61	0.74	0.79		0.89	0.85	0.65			Growth Rate (HEK-293T; 6 h, replicate number 1): 0.85; Growth Rate (HEK-293T; 12 h, replicate number 1): 0.86
C[C@@H](CO)CCC[C@@H](C)[C@H]1CC[C@H]2[C@@H]3CC=C4C[C@@H](O)CC[C@]4(C)[C@H]3CC[C@]12C	0.34	1	0.36	0.57	0.22	0.33	0.27	0.25				0.84	0.88			0.79			0.92	0.6	Growth Rate (Fibroblast; 0 h, replicate number 1): 0.73; Growth Rate (U2OS; 6 h, replicate number 2): 0.82
CCOC(=O)c1ccc(CN(Cc2ccc(-c3cccc(S(C)(=O)=O)c3)cc2)S(=O)(=O)c2c(C)cc(C)cc2C)o1	-0.26		0.38	0.59	0.87	0.86	0.84	0.87								0.98				0.99	Growth Rate (Fibroblast; 0 h, replicate number 1): 0.32; Growth Rate (U2OS; 24 h, replicate number 2): 0.89
O=C(Cc1ccccc1[N+](=O)[O-])Nc1ccc(-c2ccc(C(O)(C(F)(F)F)C(F)(F)F)cc2F)cc1	0.09	0.74	-0.05	0.45	0.28	0.13	-0.04	-0.14							0.13	0.64	0.6		-0.02	-0.02	Growth Rate (HEK-293T; 0 h, replicate number 2): -0.97; Growth Rate (HEK-293T; 6 h, replicate number 1): 0.35; Growth Rate (HEK-293T; 12 h, replicate number 1): 0.73; Growth Rate (HEK-293T; 18 h, replicate number 1): 0.7; Growth Rate (HEK-293T; 24 h, replicate number 1): 0.78; Growth Rate (U2OS; 6 h, replicate number 2): 0.87; Growth Rate (U2OS; 12 h, replicate number 2): 0.85; Growth Rate (U2OS; 18 h, replicate number 2): 0.73; Growth Rate (U2OS; 24 h, replicate number 2): 0.66
CCc1ccc(-c2ncn(CC3(F)CCN(C)CC3)c2-c2ccnc3[nH]ccc23)nc1	-0.12	0.69	0.83			0.78	0.97		0.47		0.66	0.71	0.85	0.87	0.08	0.35	0.72	0.42		0.93	Growth Rate (HEK-293T; 0 h, replicate number 2): 0.98; Growth Rate (HEK-293T; 6 h, replicate number 1): 0; Growth Rate (HEK-293T; 12 h, replicate number 1): 0.43; Growth Rate (HEK-293T; 18 h, replicate number 1): 0.76; Growth Rate (HEK-293T; 24 h, replicate number 1): 0.9; Growth Rate (Fibroblast; 0 h, replicate number 1): 0.78; Growth Rate (U2OS; 12 h, replicate number 2): 0.69; Growth Rate (U2OS; 18 h, replicate number 2): 0.83; Growth Rate (U2OS; 24 h, replicate number 2): 0.75
CCO[C@H](COc1ccc(C(F)(F)F)cc1)CSc1ccc(OCC(=O)[O-])c(C)c1.[Na+]	-0.25	0.68		0.7	0.87	0.93	0.97			0.56		0.94	0.96		0.55	0.82	0.72	0.62	0.27	0.93	Growth Rate (HEK-293T; 0 h, replicate number 2): -0.95; Growth Rate (U2OS; 6 h, replicate number 2): 0.78; Growth Rate (U2OS; 12 h, replicate number 2): 0.8; Growth Rate (U2OS; 18 h, replicate number 2): 0.92; Growth Rate (U2OS; 24 h, replicate number 2): 0.78
O=C(NCCS(=O)(=O)c1ccc(C(F)(F)F)cn1)c1ccc(Cl)cc1	-0.16	0.79		0.61	0.53	0.55	0.99	0.73				0.98	0.96	0.93	0.83	0.73	0.77	-0.73		0.9	
